Test system: KRAS-mutant PDC complex spheroid viability
Experiment: Anticancer human tumor 186277-243-T-J2-PDC patient-derived colon adenocarcinoma cell line growth inhibition [KRAS2]
Conditions: for IC50: curve of first compound; for viability, T/C: stronger effect = lower value
Method in brief: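 KRAS-mutant tumor cells were grown as spheroids with HUVEC endothelial cells and human MSCs as stroma. Targeted agents were tested alone and with KRAS pathway inhibitors. Doses started at or near clinical Cmax, or 10 microM, descending half-log.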

[1] = second compound 0.1 µM, first compound 0.0316 µM
[2] = second compound 0.1 µM, first compound 0.1 µM
[3] = second compound 0.1 µM, first compound 0.316 µM
[4] = second compound 0.1 µM, first compound 1 µM
[5] = second compound 0.1 µM, first compound 3.16 µM
[6] = second compound 0.316 µM, first compound 0.0316 µM
[7] = second compound 0.316 µM, first compound 0.1 µM
[8] = second compound 0.316 µM, first compound 0.316 µM
[9] = second compound 0.316 µM, first compound 1 µM
[10] = second compound 0.316 µM, first compound 3.16 µM
[11] = second compound 1 µM, first compound 0.0316 µM
[12] = second compound 1 µM, first compound 0.1 µM
[13] = second compound 1 µM, first compound 0.316 µM
[14] = second compound 1 µM, first compound 1 µM
[15] = second compound 1 µM, first compound 3.16 µM
[16] = second compound 3.16 µM, first compound 0.0316 µM
[17] = second compound 3.16 µM, first compound 0.1 µM
[18] = second compound 3.16 µM, first compound 0.316 µM
[19] = second compound 3.16 µM, first compound 1 µM
[20] = second compound 3.16 µM, first compound 3.16 µM
[21] = second compound 10 µM, first compound 0.0316 µM
[22] = second compound 10 µM, first compound 0.1 µM
[23] = second compound 10 µM, first compound 0.316 µM
[24] = second compound 10 µM, first compound 1 µM
[25] = second compound 10 µM, first compound 3.16 µM
[26] = second compound 0.1 µM, first compound 10 µM
[27] = second compound 0.316 µM, first compound 10 µM
[28] = second compound 1 µM, first compound 10 µM
[29] = second compound 3.16 µM, first compound 10 µM
[30] = second compound 10 µM, first compound 10 µM
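Wherever viability, T/C is given: viability read after seven days of compound exposure; 100% = DMSO vehicle-treated spheroids so lower means less viable.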

Row | Compound | IC50 (second compound 0.1 µM) [µM] | IC50 (second compound 0.316 µM) [µM] | IC50 (second compound 1 µM) [µM] | IC50 (second compound 3.16 µM) [µM] | IC50 (second compound 10 µM) [µM] | viability, T/C [1] [%] | viability, T/C [2] [%] | viability, T/C [3] [%] | viability, T/C [4] [%] | viability, T/C [5] [%] | viability, T/C [6] [%] | viability, T/C [7] [%] | viability, T/C [8] [%] | viability, T/C [9] [%] | viability, T/C [10] [%] | viability, T/C [11] [%] | viability, T/C [12] [%] | viability, T/C [13] [%] | viability, T/C [14] [%] | viability, T/C [15] [%] | also measured
1 | CC1COCCN1c1cc(-c2ccnn2C)c2ccnc(-c3ccn[nH]3)c2n1 (stereo not given) + COc1cc2nc(C)nc(NC(C)c3cc(N)cc(C(F)(F)F)c3)c2cc1OC1CCOC1 | < 0.01 | 0.0212 | 0.0199 | 0.0199 | 0.0189 | 4.38 | 3.41 | 2.71 | 2.04 | 1.41 | 24.3 | 3.67 | 2.88 | 2.23 | 3.71 | 17.2 | 4.4 | 3.51 | 3.19 | 3.55 | viability, T/C (second compound 0.1 µM, first compound 0.01 µM): 5.03%; viability, T/C (second compound 0.316 µM, first compound 0.01 µM): 98.5%; viability, T/C (second compound 1 µM, first compound 0.01 µM): 98.9%; viability, T/C (second compound 3.16 µM, first compound 0.01 µM): 99.5%; viability, T/C [16]: 16.4%; viability, T/C [17]: 3.55%; viability, T/C [18]: 2.87%; viability, T/C [19]: 1.93%; viability, T/C [20]: 3.19%; viability, T/C (second compound 10 µM, first compound 0.01 µM): 103%; viability, T/C [21]: 7.22%; viability, T/C [22]: 3.43%; viability, T/C [23]: 2.48%; viability, T/C [24]: 2.25%; viability, T/C [25]: 2.72%
2 | CC1OCC2(CCN(c3cnc(Sc4ccnc(N)c4Cl)c(N)n3)CC2)C1N (stereo not given) + COc1cc2nc(C)nc(NC(C)c3cc(N)cc(C(F)(F)F)c3)c2cc1OC1CCOC1 | > 10 | > 10 | > 10 | > 10 | 1.52 | 103 | 96.1 | 104 | 108 | 109 | 106 | 104 | 93.9 | 100 | 115 | 99.9 | 101 | 103 | 104 | 114 | viability, T/C [26]: 112%; viability, T/C [27]: 98.1%; viability, T/C [28]: 85.4%; viability, T/C [16]: 98.9%; viability, T/C [17]: 87.6%; viability, T/C [18]: 96.7%; viability, T/C [19]: 114%; viability, T/C [20]: 111%; viability, T/C [29]: 78.8%; viability, T/C [21]: 93.6%; viability, T/C [22]: 96.7%; viability, T/C [23]: 93.5%; viability, T/C [24]: 50.5%; viability, T/C [25]: 39%; viability, T/C [30]: 9.31%
3 | Cn1nccc1Nc1nccc(-c2cc3c(s2)C(C)(C)N(CCN2CCOCC2)C3=O)n1 + COc1cc2nc(C)nc(NC(C)c3cc(N)cc(C(F)(F)F)c3)c2cc1OC1CCOC1 | 0.266 | 0.301 | 0.22 | 0.193 | 0.0757 | 90.7 | 105 | 41.4 | 9.64 | 5.24 | 93.1 | 97.9 | 48 | 9 | 4.51 | 92.2 | 100 | 28.7 | 6.92 | 3.64 | viability, T/C [26]: 5.34%; viability, T/C [27]: 4.67%; viability, T/C [28]: 4.79%; viability, T/C [16]: 91.6%; viability, T/C [17]: 85.6%; viability, T/C [18]: 23.2%; viability, T/C [19]: 7.66%; viability, T/C [20]: 4.43%; viability, T/C [29]: 4.37%; viability, T/C [21]: 86.1%; viability, T/C [22]: 38.5%; viability, T/C [23]: 4.06%; viability, T/C [24]: 1.74%; viability, T/C [25]: 0.34%; viability, T/C [30]: 0.22%

From PubChem BioAssay AID1963875 (Molecular Pharmacology Branch, DTP, NCI, 2024)
